Results: PubChem BioAssay (NCI)
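GI50 = concentration required for 50% inhibition of growth. TGI: total growth inhibition.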

Tests used:
Assay in all cases: NCI tumour cell line growth inhibition, 384-well format
786-0 renal = test system: 786-0 renal
A498 renal = test system: A498 renal
A549 NSCLC = test system: A549 NSCLC
ACHN renal = test system: ACHN renal
BT-549 breast = test system: BT-549 breast
CAKI-1 renal = test system: CAKI-1 renal
CCRF-CEM leukemia = test system: CCRF-CEM leukemia
COLO 205 colon = test system: COLO 205 colon
DU-145 prostate = test system: DU-145 prostate
EKVX NSCLC = test system: EKVX NSCLC
HCC-2998 colon = test system: HCC-2998 colon
HCT-116 colon = test system: HCT-116 colon
HCT-15 colon = test system: HCT-15 colon
HL-60(TB) leukemia = test system: HL-60(TB) leukemia
HOP-62 NSCLC = test system: HOP-62 NSCLC
HOP-92 NSCLC = test system: HOP-92 NSCLC
HS 578T breast = test system: HS 578T breast
HT29 colon = test system: HT29 colon
IGROV1 ovarian = test system: IGROV1 ovarian
K-562 leukemia = test system: K-562 leukemia
KM12 colon = test system: KM12 colon
LOX IMVI melanoma = test system: LOX IMVI melanoma
M14 melanoma = test system: M14 melanoma
MALME-3M melanoma = test system: MALME-3M melanoma
MCF7 breast = test system: MCF7 breast
MDA-MB-231 breast = test system: MDA-MB-231 breast
MDA-MB-435 melanoma = test system: MDA-MB-435 melanoma
MDA-MB-468 breast = test system: MDA-MB-468 breast
MOLT-4 leukemia = test system: MOLT-4 leukemia
NCI-H226 lung = test system: NCI-H226 lung
NCI-H23 lung = test system: NCI-H23 lung
NCI-H322M lung = test system: NCI-H322M lung
NCI-H460 NSCLC = test system: NCI-H460 NSCLC
NCI-H522 lung = test system: NCI-H522 lung
NCI/ADR-RES ovarian = test system: NCI/ADR-RES ovarian
OVCAR-3 ovarian = test system: OVCAR-3 ovarian
OVCAR-4 ovarian = test system: OVCAR-4 ovarian
OVCAR-5 ovarian = test system: OVCAR-5 ovarian
OVCAR-8 ovarian = test system: OVCAR-8 ovarian
PC-3 prostate = test system: PC-3 prostate
RPMI-8226 leukemia = test system: RPMI-8226 leukemia
RXF 393 renal = test system: RXF 393 renal
SF-268 CNS = test system: SF-268 CNS
SF-295 CNS = test system: SF-295 CNS
SF-539 CNS = test system: SF-539 CNS
SK-MEL-2 melanoma = test system: SK-MEL-2 melanoma
SK-MEL-28 melanoma = test system: SK-MEL-28 melanoma
SK-MEL-5 melanoma = test system: SK-MEL-5 melanoma
SK-OV-3 ovarian = test system: SK-OV-3 ovarian
SN12C renal = test system: SN12C renal
SNB-19 CNS = test system: SNB-19 CNS
SNB-75 CNS = test system: SNB-75 CNS
SR leukemia = test system: SR leukemia
SW-620 colon = test system: SW-620 colon
T-47D breast = test system: T-47D breast
TK-10 renal = test system: TK-10 renal
U251 glioblastoma = test system: U251 glioblastoma
UACC-257 melanoma = test system: UACC-257 melanoma
UACC-62 melanoma = test system: UACC-62 melanoma
UO-31 renal = test system: UO-31 renal

## O=C(c1ccc(Oc2ccccc2)cc1Cl)c1c[nH]c2ncnc(N[C@@H]3CC[C@@H](CO)OC3)c12
786-0 renal
  GI50: 1.11 µM
  TGI: 4.61 µM
A498 renal
  GI50: 0.519 µM
  TGI: 2.77 µM
A549 NSCLC
  GI50: 0.244 µM
  TGI: 1.54 µM
ACHN renal
  GI50: 0.121 µM
  TGI: 0.983 µM
BT-549 breast
  GI50: 0.313 µM
  TGI: 1.46 µM
CAKI-1 renal
  GI50: 0.261 µM
  TGI: 1.44 µM
CCRF-CEM leukemia
  GI50: 1.59 µM
  TGI: 3.4 µM
COLO 205 colon
  GI50: 0.0177 µM
  TGI: 0.113 µM
DU-145 prostate
  GI50: 0.354 µM
  TGI: 1.48 µM
EKVX NSCLC
  GI50: 0.113 µM
  TGI: 1.07 µM
HCC-2998 colon
  GI50: 0.0299 µM
  TGI: 0.204 µM
HCT-116 colon
  GI50: 0.248 µM
  TGI: 1.11 µM
HCT-15 colon
  GI50: 0.51 µM
  TGI: 3.34 µM
HL-60(TB) leukemia
  GI50: 0.0368 µM
  TGI: 0.196 µM
HOP-62 NSCLC
  GI50: 0.638 µM
  TGI: 2.66 µM
HOP-92 NSCLC
  GI50: 0.273 µM
  TGI: 1.19 µM
HS 578T breast
  GI50: 0.7 µM
  TGI: 2.12 µM
HT29 colon
  GI50: 0.0334 µM
  TGI: 1.3 µM
IGROV1 ovarian
  GI50: 0.0306 µM
  TGI: 0.987 µM
K-562 leukemia
  GI50: 0.153 µM
  TGI: 0.399 µM
KM12 colon
  GI50: 0.0194 µM
  TGI: 0.171 µM
LOX IMVI melanoma
  GI50: 0.0331 µM
  TGI: 0.161 µM
M14 melanoma
  TGI: 0.0489 µM
MALME-3M melanoma
  TGI: 0.0247 µM
MCF7 breast
  GI50: 0.255 µM
  TGI: 1.91 µM
MDA-MB-231 breast
  GI50: 0.0463 µM
  TGI: 0.207 µM
MDA-MB-435 melanoma
  GI50: 0.017 µM
  TGI: 0.17 µM
MDA-MB-468 breast
  GI50: 0.303 µM
  TGI: 1.87 µM
MOLT-4 leukemia
  GI50: 0.296 µM
  TGI: 1.82 µM
NCI-H226 lung
  GI50: 0.135 µM
  TGI: 0.937 µM
NCI-H23 lung
  GI50: 0.067 µM
  TGI: 0.385 µM
NCI-H322M lung
  GI50: 0.249 µM
  TGI: 1.78 µM
NCI-H460 NSCLC
  GI50: 0.771 µM
  TGI: 3.65 µM
NCI-H522 lung
  GI50: 0.0494 µM
  TGI: 0.366 µM
NCI/ADR-RES ovarian
  GI50: 1.13 µM
  TGI: 2.48 µM
OVCAR-3 ovarian
  GI50: 0.13 µM
  TGI: 3.18 µM
OVCAR-4 ovarian
  GI50: 1.13 µM
  TGI: 7.2 µM
OVCAR-5 ovarian
  GI50: 0.153 µM
  TGI: 0.938 µM
OVCAR-8 ovarian
  GI50: 0.39 µM
  TGI: 2.08 µM
PC-3 prostate
  GI50: 2.32 µM
  TGI: 11.6 µM
RPMI-8226 leukemia
  GI50: 0.696 µM
  TGI: 2.19 µM
RXF 393 renal
  GI50: 0.21 µM
  TGI: 0.92 µM
SF-268 CNS
  GI50: 0.482 µM
  TGI: 4.89 µM
SF-295 CNS
  GI50: 1 µM
  TGI: 3.33 µM
SF-539 CNS
  GI50: 0.338 µM
  TGI: 1.6 µM
SK-MEL-2 melanoma
  GI50: 0.127 µM
  TGI: 0.289 µM
SK-MEL-28 melanoma
  GI50: 0.0133 µM
  TGI: 0.0558 µM
SK-MEL-5 melanoma
  GI50: 0.0337 µM
  TGI: 1.47 µM
SK-OV-3 ovarian
  GI50: 0.201 µM
  TGI: 0.965 µM
SN12C renal
  GI50: 0.193 µM
  TGI: 1.38 µM
SNB-19 CNS
  GI50: 0.372 µM
  TGI: 3.95 µM
SNB-75 CNS
  GI50: 0.801 µM
  TGI: 2.28 µM
SR leukemia
  GI50: 0.186 µM
  TGI: 0.343 µM
SW-620 colon
  GI50: 0.151 µM
  TGI: 1.27 µM
T-47D breast
  GI50: 0.52 µM
  TGI: 3.21 µM
TK-10 renal
  GI50: 0.185 µM
  TGI: 0.543 µM
U251 glioblastoma
  GI50: 0.462 µM
  TGI: 2.51 µM
UACC-257 melanoma
  GI50: 0.0217 µM
  TGI: 0.0839 µM
UACC-62 melanoma
  GI50: 0.0107 µM
  TGI: 0.0547 µM
UO-31 renal
  GI50: 0.305 µM
  TGI: 1.45 µM
